Experimental data taken from PubChem BioAssay AID2635 (Broad Institute, 2010).
Records with an inconclusive call do not appear. Calls of active or inactive are those of the source. No rule for the calls is given here.

Test system: BJ-TERT RAS-dependent fibroblast cytotoxicity, fluorescence
Assay: cytotoxicity toward RAS-dependent BJ-TERT fibroblasts, dose response, cell-based, fluorescence viability readout (AID 2635)

SMILES	EC50
Nc1nc(CCl)nc(Nc2cccc3ccccc23)n1	> 6.67 µM (inactive)
COc1cccc(/C=C2\SC(=S)N(CCCC(=O)N(CCO)c3ccccc3)C2=O)c1	> 6.67 µM (inactive)
CC[C@@]1(O)C(=O)OCc2c1cc1n(c2=O)Cc2cc3c(CN(C)C)c(O)ccc3nc2-1	0.23 µM
Cc1ccc(/C=C2\SC(=S)N(CCCC(=O)N3CCOCC3)C2=O)cc1	> 6.67 µM (inactive)
CCc1ccc(/C=C2/SC(=S)N(CCC(=O)Nc3cccnc3)C2=O)cc1	> 6.67 µM (inactive)
O=[N+]([O-])c1ccc(N=Nc2ncc[nH]2)cc1	> 6.67 µM (inactive)
CCN(CC)c1ccc(/C=N/NC(=O)c2nnn(-c3nonc3N)c2C(C)C)c(O)c1	0.954 µM
CC(Oc1ccc(Cl)cc1Cl)c1nc(-c2ccc(NC(=O)c3cccnc3)cc2)no1 (stereo not drawn)	> 6.67 µM (inactive)
Cc1ccc(Nc2nc(N)nc(CCl)n2)c(C)c1	> 6.67 µM (inactive)
O=S(=O)(c1ccc2c(c1)C(=NO)c1cc(S(=O)(=O)N3CCCCC3)ccc1-2)N1CCCCC1	2.58 µM
CCc1ccc(/C=C2/SC(=S)N(CCC(=O)NCCCN3CCOCC3)C2=O)cc1	> 6.67 µM (inactive)
Oc1ccccc1N=Nc1nc(-c2ccccc2)c(-c2ccccc2)[nH]1	0.374 µM
COc1ccc(N(C(=O)CCl)C(C(=O)NCCc2ccccc2)c2cccs2)cc1Cl (stereo not drawn)	> 2.08 µM (inactive)
Cc1cccc(Nc2nc(N)nc(CCl)n2)c1	> 6.67 µM (inactive)
COc1ccc(C(C(=O)NC2CCCCC2)N(C(=O)CCl)c2cccc(Cl)c2)cc1 (stereo not drawn)	> 2.08 µM (inactive)
Cc1ccc(N(C(=O)CCl)C(C(=O)NC2CCCCC2)c2cccnc2)cc1C (stereo not drawn)	0.26 µM
COc1ccc(OC)c(Nc2nc(N)nc(CCl)n2)c1	> 6.67 µM (inactive)
CC[C@H]1CN2CCc3cc(OC)c(OC)cc3[C@@H]2C[C@@H]1C[C@H]1NCCc2cc(OC)c(OC)cc21	0.0103 µM
CC[C@@]1(O)C(=O)OCc2c1cc1n(c2=O)Cc2cc3c(N)cccc3nc2-1	0.052 µM
CCOc1ccc(CC(=O)Nc2ccc(NC(=O)c3ccco3)cc2)cc1OCC	> 6.67 µM (inactive)

SMILES	EC50
COc1ccc(C[C@H]2NC[C@H](O)[C@H]2OC(C)=O)cc1	0.0456 µM
C=CCOc1ccccc1CN(C(=O)CCl)c1ccc2c(c1)OCO2	> 6.67 µM (inactive)
COc1ccc(N(C(=O)CCl)C(C(=O)NCCc2ccccc2)c2cccs2)cc1 (stereo not drawn)	4.89 µM
COC(=O)C[C@](O)(CCCC(C)(C)O)C(=O)O[C@@H]1C(OC)=C[C@]23CCCN2CCc2cc4c(cc2[C@H]13)OCO4	0.00683 µM
Cc1cccc(OCC(=O)Nc2ccc(C(=O)NCc3cccnc3)cc2)c1	> 6.67 µM (inactive)
C/C(=N\Nc1ccc2nncn2n1)c1ccccn1	5.47 µM
O=C(N/N=C/c1cccnc1)c1ccc(NC(=O)C(c2ccccc2)c2ccccc2)cc1	> 6.67 µM (inactive)
O=C(Cc1ccc([N+](=O)[O-])cc1)N/N=C/c1ccc([N+](=O)[O-])o1	> 6.67 µM (inactive)
Cc1ccc(C(=O)Sc2cccccc2=O)cc1	0.13 µM
COC(=O)[C@@H]1Cc2c([nH]c3ccccc23)C(C)(C)N1C(=O)CCl	> 6.67 µM (inactive)
CC[C@@]1(O)C(=O)OCc2c1cc1n(c2=O)Cc2cc3c(NC(=O)CN)cccc3nc2-1	5.85 µM
C/C(=N\Nc1ncc(Cl)cc1Cl)c1ccccn1	0.0273 µM
CC1=CC(=O)C=C(C)C1=NOc1ccccc1[N+](=O)[O-]	> 6.67 µM (inactive)
C=C1C(=O)O[C@@H]2C[C@@H](C)[C@@H]3C=CC(=O)[C@@]3(C)[C@@H](OC(=O)CC(=O)O[C@H]3[C@@H]4C(=C)C(=O)O[C@@H]4C[C@@H](C)[C@@H]4C=CC(=O)[C@]43C)[C@H]12	0.144 µM
O=C(NCc1cccnc1)c1ccc(-c2cc3ccccc3oc2=O)cc1	> 6.67 µM (inactive)
CC(C)C(=O)Nc1ccc(C(=O)NCc2cccnc2)cc1	> 6.67 µM (inactive)
CC(=O)Nc1ccc(NC(=O)CN(c2cccc([N+](=O)[O-])c2)S(C)(=O)=O)cc1	> 6.67 µM (inactive)
CCN1/C(=C\C=C\C2=[N+](CC)c3ccccc3C2(C)C)C(C)(C)c2ccccc21	0.287 µM
CC(C)(C)c1ccc(C(=O)Nc2ccc(C(=O)NCc3cccnc3)cc2)cc1	> 6.67 µM (inactive)
O=S(=O)(c1ccc(NC(=S)NCc2cccnc2)cc1)N1CCCCC1	> 6.67 µM (inactive)

SMILES	EC50
O=C(CCN1C(=O)/C(=C\c2cccc(Br)c2)SC1=S)NCCCN1CCOCC1	> 6.67 µM (inactive)
COc1ccc(Cc2nc(-c3ccc(NC(=O)c4cccnc4)cc3)no2)cc1	> 6.67 µM (inactive)
CC(C)(C)c1nnc(N/N=C/c2cc(Br)ccc2O)n(N)c1=O	1.91 µM
O=C(NCc1cccnc1)c1ccc(NC(=O)c2cccc([N+](=O)[O-])c2)cc1	> 6.67 µM (inactive)
CN1CCN(C(=O)CCCN2C(=O)/C(=C/c3cccc(Br)c3)SC2=S)CC1	> 6.67 µM (inactive)
O=C(NCc1cccnc1)c1ccc(NC(=O)c2ccc([N+](=O)[O-])cc2)cc1	> 6.67 µM (inactive)
O=C(COc1ccc(Cl)cc1)Nc1ccc(C(=O)NCc2cccnc2)cc1	> 6.67 µM (inactive)
O=C(CCl)N=c1sccn1Cc1ccccc1Cl	> 2.08 µM (inactive)
CCc1ccc(/C=C2\SC(=S)N(CCC(=O)NCCCN3CCOCC3)C2=O)cc1	> 6.67 µM (inactive)
COc1ccc(S(=O)(=O)N2CCOCC2)cc1NC(=O)CCNC(=O)c1ccc(Br)cc1	> 6.67 µM (inactive)
O=C(CCCCCN1C(=O)c2cccc3cccc(c23)C1=O)NCc1cccnc1	> 6.67 µM (inactive)
COc1cccc(N(C(=O)CCl)C(C(=O)NCCc2ccccc2)c2cccs2)c1 (stereo not drawn)	6.05 µM
Cc1cccnc1Nc1nc(-c2ccccn2)cs1	0.985 µM
O=C(NCCOc1cccnc1)c1ccc(OC2CCN(Cc3ccccn3)CC2)cc1	5.19 µM
Cc1cccc(Nc2nc(N)nc(CCl)n2)c1C	> 6.67 µM (inactive)
Cc1ccccc1Nc1nc(N)nc(CCl)n1	> 6.67 µM (inactive)
CC[C@@]1(O)C(=O)OCc2c1cc1n(c2=O)Cc2cc3ccccc3nc2-1	0.0178 µM
COc1ccc(C(C(=O)NC2CCCCC2)N(C(=O)CCl)c2ccc(C)cc2)cc1 (stereo not drawn)	> 6.67 µM (inactive)
